{"source": "paper PMC10799085", "about": "“A miniaturized mode-of-action profiling platform enables high throughput characterization of the molecular and cellular dynamics of EZH2 inhibition” (Scientific Reports, 2024)", "key": {"PRC2/EZH2Y641N [1]": {"target": "T1, PRC2/EZH2Y641N (Homo sapiens, UniProt Q15910, Y641N)", "T1 construct": "Synthetic cDNA encoding N-terminal 6His-tagged full length EZH2^Y641N; 6His (N); made in house; host or cells: Sf9 insect cells (baculovirus co-infection)", "assay": "Scintillation proximity assay (SPA) of H3K27 methylation", "type": "biochemical", "experimental": "(§1) Assay-ready plates containing 50 nl of compound dilutions and DMSO controls were filled with 2.5 µL enzyme solution and pre-incubated for 15 min. […] Experiments were also performed without pre-incubation of enzyme and compounds. In this case, the substrate solution was added before enzyme. The reaction was stopped using 1.6 µg/µl streptavidin beads (Perkin Elmer) and 700 µM of SAM (Perkin Elmer). The plates were sealed with transparent foil.\n(§2) For equilibrium binding competition (ePCA) and SPA enzyme inhibition assays, raw data import, quality control, normalization, and curve fitting to a 4-parameter logistic equation for IC50 determination were performed using the Genedata Screener® software (Genedata AG). ePCA Ki values were either calculated using the Cheng-Prussof equation[68] or with the GraphPad Prism model “One-site—Fit Ki”."}, "PRC2/EZH2+/+ [2]": {"target": "T2, PRC2/EZH2+/+ (Homo sapiens, UniProt Q15910)", "T2 construct": "purchased Active Motif", "assay": "Scintillation proximity assay (SPA) of H3K27 methylation", "type": "biochemical", "experimental": "as §1, §2"}, "PRC2/EZH2Y111D": {"target": "T3, PRC2/EZH2Y111D (Homo sapiens, UniProt Q15910, Y111D)", "T3 construct": "N-terminal 6His-tagged full length EZH2^Y641N, EZH2^Y111L, EZH2^Y111D; 6His (N); made in house; host or cells: Sf9 insect cells (baculovirus co-infection)", "assay": "Scintillation proximity assay (SPA) of H3K27 methylation", "type": "biochemical", "experimental": "as §1, §2"}, "PRC2/EZH2 Y111L": {"target": "T4, PRC2/EZH2 Y111L (Homo sapiens, UniProt Q15910, Y111L)", "T4 construct": "N-terminal 6His-tagged full length EZH2^Y641N, EZH2^Y111L; 6His (N); made in house; host or cells: Sf9 insect cells (baculovirus co-infection)", "assay": "Scintillation proximity assay (SPA) of H3K27 methylation", "type": "biochemical", "experimental": "as §1, §2"}, "PRC2/EZH2Y641N+Y661D": {"target": "T5, PRC2/EZH2Y641N+Y661D (Homo sapiens, UniProt Q15910, Y641N/Y661D)", "T5 construct": "N-terminal 6His-tagged full length EZH2^Y641N, EZH2^Y111L, EZH2^Y111D, EZH2^Y641N, Y661DEZH2, EZH1; 6His (N); made in house; host or cells: Sf9 insect cells (baculovirus co-infection)", "assay": "Scintillation proximity assay (SPA) of H3K27 methylation", "type": "biochemical", "experimental": "as §1, §2"}, "PRC2/EZH2+/+ [3]": {"target": "T2, PRC2/EZH2+/+", "assay": "Equilibrium probe competition assay (ePCA), TR-FRET", "type": "binding"}, "PRC2/EZH2Y641N [4]": {"target": "T1, PRC2/EZH2Y641N", "assay": "Kinetic probe competition assay (kPCA), TR-FRET", "type": "binding", "details": "EZH2Y641N (+ H3K27me3)", "excerpt": "Biotinylated PRC2 complexes and the fluorescent probe used in TR-FRET assays were generated as described in the supplementary methods section."}}, "note": "Read-outs that look alike come from different tables or passages of the source."}
{"smiles": "Cc1cc(C)c(CN2CCc3c(Cl)cc(-c4c(C)noc4C)c(Cl)c3C2=O)c(=O)[nH]1", "note": "[Compound 14]", "values": [{"measurement": "IC50", "setting": "PRC2/EZH2Y641N [1]; 0' enzyme:inhibitor pre-incubation, read-out: SPA Mean IC50 (M) - 0' enzyme:inhibitor pre-incubation hEZH2Y641N", "value": "1.5e-08", "unit": "M"}, {"measurement": "IC50", "setting": "PRC2/EZH2Y641N [1]; 15' enzyme:inhibitor pre-incubation, read-out: SPA Mean IC50 (M) - 15' enzyme:inhibitor pre-incubation EZH2Y641N", "value": "1.1e-08", "unit": "M"}, {"measurement": "IC50", "setting": "PRC2/EZH2Y641N [1]; 60' enzyme:inhibitor pre-incubation, read-out: SPA Mean IC50 (M) - 60' enzyme:inhibitor pre-incubation EZH2Y641N", "value": "1.2e-08", "unit": "M"}, {"measurement": "Ligand Efficiency - 0' enzyme:inhibitor pre-incubation hEZH2Y641N", "setting": "PRC2/EZH2Y641N [1]; from SPA pIC50 (1.4*pIC50 / atom count), 0' pre-incubation", "value": 1.4}, {"measurement": "Ligand Efficiency - 15' enzyme:inhibitor pre-incubation EZH2Y641N", "setting": "PRC2/EZH2Y641N [1]; from SPA pIC50 (1.4*pIC50 / atom count), 15' pre-incubation", "value": 1.4}, {"measurement": "Ligand Efficiency - 60' enzyme:inhibitor pre-incubation EZH2Y641N", "setting": "PRC2/EZH2Y641N [1]; from SPA pIC50 (1.4*pIC50 / atom count), 60' pre-incubation", "value": 1.4}, {"measurement": "Ligand Efficiency - 0' enzyme:inhibitor pre-incubation EZH2+/+", "setting": "PRC2/EZH2+/+ [2]", "value": 1.5}, {"measurement": "Ligand Efficiency - 15' enzyme:inhibitor pre-incubation EZH2+/+", "setting": "PRC2/EZH2+/+ [2]", "value": 1.5}, {"measurement": "Ligand Efficiency - 60' enzyme:inhibitor pre-incubation EZH2+/+", "setting": "PRC2/EZH2+/+ [2]", "value": 1.5}, {"measurement": "IC50", "setting": "PRC2/EZH2+/+ [2]; 0' enzyme:inhibitor pre-incubation, read-out: SPA Mean IC50 (M) - 0' enzyme:inhibitor pre-incubation EZH2+/+", "value": "4.1e-09", "unit": "M"}, {"measurement": "IC50", "setting": "PRC2/EZH2+/+ [2]; 15' enzyme:inhibitor pre-incubation, read-out: SPA Mean IC50 (M) - 15' enzyme:inhibitor pre-incubation EZH2+/+", "value": "1.9e-09", "unit": "M"}, {"measurement": "IC50", "setting": "PRC2/EZH2+/+ [2]; 60' enzyme:inhibitor pre-incubation, read-out: SPA Mean IC50 (M) - 60' enzyme:inhibitor pre-incubation EZH2+/+", "value": "1.8e-09", "unit": "M"}, {"measurement": "Ligand Efficiency - 0' enzyme:inhibitor pre-incubation EZH2Y111D", "setting": "PRC2/EZH2Y111D", "value": 0.9}, {"measurement": "Ligand Efficiency - 15' enzyme:inhibitor pre-incubation EZH2Y111D", "setting": "PRC2/EZH2Y111D", "value": 0.9}, {"measurement": "Ligand Efficiency - 60' enzyme:inhibitor pre-incubation EZH2Y111D", "setting": "PRC2/EZH2Y111D", "value": 0.857}, {"measurement": "IC50", "setting": "PRC2/EZH2Y111D; 0' enzyme:inhibitor pre-incubation, read-out: SPA Mean IC50 (M) - 0' enzyme:inhibitor pre-incubation EZH2Y111D", "value": "1.3e-05", "unit": "M"}, {"measurement": "IC50", "setting": "PRC2/EZH2Y111D; 15' enzyme:inhibitor pre-incubation, read-out: SPA Mean IC50 (M) - 15' enzyme:inhibitor pre-incubation EZH2Y111D", "value": "8.5e-06", "unit": "M"}, {"measurement": "IC50", "setting": "PRC2/EZH2Y111D; 60' enzyme:inhibitor pre-incubation, read-out: SPA Mean IC50 (M) - 60' enzyme:inhibitor pre-incubation EZH2Y111D", "value": "1.3e-05", "unit": "M"}, {"measurement": "Ligand Efficiency - 0' enzyme:inhibitor pre-incubation EZH2 Y111L", "setting": "PRC2/EZH2 Y111L", "value": 1.0}, {"measurement": "Ligand Efficiency - 15' enzyme:inhibitor pre-incubation EZH2 Y111L", "setting": "PRC2/EZH2 Y111L", "value": 1.1}, {"measurement": "Ligand Efficiency - 60' enzyme:inhibitor pre-incubation EZH2 Y111L", "setting": "PRC2/EZH2 Y111L", "value": 1.0}, {"measurement": "IC50", "setting": "PRC2/EZH2 Y111L; 0' enzyme:inhibitor pre-incubation, read-out: SPA Mean IC50 (M) - 0' enzyme:inhibitor pre-incubation EZH2 Y111L", "value": "1.1e-06", "unit": "M"}, {"measurement": "IC50", "setting": "PRC2/EZH2 Y111L; 15' enzyme:inhibitor pre-incubation, read-out: SPA Mean IC50 (M) - 15' enzyme:inhibitor pre-incubation EZH2 Y111L", "value": "9.6e-07", "unit": "M"}, {"measurement": "IC50", "setting": "PRC2/EZH2 Y111L; 60' enzyme:inhibitor pre-incubation, read-out: SPA Mean IC50 (M) - 60' enzyme:inhibitor pre-incubation EZH2 Y111L", "value": "1.1e-06", "unit": "M"}, {"measurement": "Ligand Efficiency - 0' enzyme:inhibitor pre-incubation EZH2Y641N+Y661D", "setting": "PRC2/EZH2Y641N+Y661D", "value": 1.0}, {"measurement": "Ligand Efficiency - 15' enzyme:inhibitor pre-incubation EZH2Y641N+Y661D", "setting": "PRC2/EZH2Y641N+Y661D", "value": 1.0}, {"measurement": "Ligand Efficiency - 60' enzyme:inhibitor pre-incubation EZH2Y641N+Y661D", "setting": "PRC2/EZH2Y641N+Y661D", "value": 1.0}, {"measurement": "IC50", "setting": "PRC2/EZH2Y641N+Y661D; 0' enzyme:inhibitor pre-incubation, read-out: SPA Mean IC50 (M) - 0' enzyme:inhibitor pre-incubation EZH2Y641N+Y661D", "value": "1.4e-06", "unit": "M"}, {"measurement": "IC50", "setting": "PRC2/EZH2Y641N+Y661D; 15' enzyme:inhibitor pre-incubation, read-out: SPA Mean IC50 (M) - 15' enzyme:inhibitor pre-incubation EZH2Y641N+Y661D", "value": "1.1e-06", "unit": "M"}, {"measurement": "IC50", "setting": "PRC2/EZH2Y641N+Y661D; 60' enzyme:inhibitor pre-incubation, read-out: SPA Mean IC50 (M) - 60' enzyme:inhibitor pre-incubation EZH2Y641N+Y661D", "value": "1.6e-06", "unit": "M"}, {"measurement": "Ligand Efficiency", "setting": "PRC2/EZH2+/+ [3]; EZH2+/+ (+ H3K27me3)", "value": 1.6}, {"measurement": "Ki", "setting": "PRC2/EZH2+/+ [3]; EZH2+/+ (+ H3K27me3), sheet ePCA&kPCA RT, read-out: Equilibrium Ki", "value": 0.907, "unit": "nM"}, {"measurement": "Ligand Efficiency", "setting": "PRC2/EZH2+/+ [3]; EZH2+/+ (- H3K27me3)", "value": 1.5}, {"measurement": "Ki", "setting": "PRC2/EZH2+/+ [3]; EZH2+/+ (- H3K27me3), 5 °C, read-out: Ki (Equilibrium)", "value": 1.1, "unit": "nM"}, {"measurement": "Ki", "setting": "PRC2/EZH2+/+ [3]; EZH2+/+ (- H3K27me3), 15 °C, read-out: Ki (Equilibrium)", "value": 0.81, "unit": "nM"}, {"measurement": "Ki", "setting": "PRC2/EZH2+/+ [3]; EZH2+/+ (- H3K27me3), 30 °C, read-out: Ki (Equilibrium)", "value": 1.96, "unit": "nM"}, {"measurement": "Ki", "setting": "PRC2/EZH2+/+ [3]; EZH2+/+ (- H3K27me3), 37 °C, read-out: Ki (Equilibrium)", "value": 2.3, "unit": "nM"}, {"measurement": "Ki", "setting": "PRC2/EZH2+/+ [3]; EZH2+/+ (- H3K27me3), sheet ePCA&kPCA RT, read-out: Equilibrium Ki", "value": 1.47, "unit": "nM"}, {"measurement": "Kinetic Efficiency", "setting": "PRC2/EZH2Y641N [4]", "value": "2.02E-02"}, {"measurement": "koff", "setting": "PRC2/EZH2Y641N [4]; RT sheet", "value": 0.000921, "unit": "s⁻¹"}, {"measurement": "kon", "setting": "PRC2/EZH2Y641N [4]; RT sheet", "value": "1.28e+06", "unit": "M⁻¹ s⁻¹"}]}
